# Results reported in patent US9351918B2, “Polyglycerol-azelaic acid polyesters for cosmetic applications” (GIULIANI S.P.A., priority 2012, dated 2016).
# Legend:
# [1] = system: TNF-α gene expression in human keratinocytes NCTC 2544; test: Anti-inflammatory test on NCTC2544: TNF-α gene expression by RT-PCR with LPS from E. coli; assay type: cell-based; conditions: 20 μM together with LPS 5 μg/ml, 24 hours
# Method: The anti-inflammatory effects were investigated of polyglyceryl-3 azelaiate oligomers (POLY-AZ) obtained with the method in Example 1 in an in vitro model of inflammation on human keratinocytes NCTC2544, and using lipopolysaccharide
# (LPS) from E. coli to mediate inflammation or irritation. The effect of the derivative in the models used was compared with that of azelaic acid (AZ-ACID), a known anti-inflammatory agent.
# (§1) The TNF-α gene expression in NCTC 2544 was evaluated using RT-PCR.
# There are four phases to the gene expression analysis:
# 1. Treatment of cells with active compounds for 16, 24 and 48 hours; […]
# (§2) The extracted and quantified total RNA was amplified using the “High Capacity cDNA Reverse Transcription Kit” (Applied Biosystems). […]
# (§3) The relative quantification method was used which compares the relative concentration of the gene of interest (target) in unknown samples to a calibrator or control sample (untreated cells). […]
# (§4) The data provided by the Stratagene Mx3000P tool was recorded by the MXpro v.4.01 software. […]
# Following the preliminary model validation experiment described above, the TNF-α gene expression was evaluated using RT-PCR on NCTC 2544 cells, after treatments with 20 μM of polyglyceryl-3-azelaiate and 20 μM of azelaic acid together with LPS at 5 μg/ml in the culture medium to evaluate the anti-inflammatory effect of the two compounds. […]
# [2] = system: TNF-α gene expression in human keratinocytes NCTC 2544; test: Test of irritancy potential in NCTC2544: TNF-α gene expression by RT-PCR, compared with LPS positive control; assay type: cell-based; conditions: 20 μM, 24 hours
# Method: The irritant potential of the derivative (POLY-AZ) was also determined in vitro compared with a positive control (cells treated with 5 μg/ml of lipopolysaccharide). The results were compared with those obtained using azelaic acid (AZ-ACID) in the same experimental model.
# as §1
# Test of Irritancy Potential in NCTC2544
# When the cells (human keratinocytes NCTC 2544) reached approximately 80% confluence, they were separated with trypsin/EDTA and seeded at a density of 1×10^6 cells/ml in a 12-well plate and then incubated at 37° C., 5% CO2 (24 hours).
# Day 2: 24-Hour Exposure to Substances […]
# as §2, §3, §4
# The TNF-α gene expression in NCTC 2544 cells was also evaluated after treatments with 20 μM of polyglyceryl-3-azelaiate and 20 μM of azelaic acid compared with cells treated with LPS (5 μg/ml) in the culture medium, in order to compare the effects of these compounds against a known irritant agent (LPS). […]
compound,measurement,setting,value
"O=C(O)CCCCCCCC(=O)O [azelaic acid, nonanedioic acid]",Inhibitory effect on TNF-α gene expression (anti-inflammatory effect),[1],does not produce an inhibitory effect
same,Irritancy potential,[2],neither are irritating
